Test results: patent US12570696B2, “Tumor-specific polypeptide sequence and use thereof” (SHENZHEN GINO BIOTECHNOLOGY CO., LTD., priority 2019, dated 2026)
Where “and” joins values, the source holds several entries; their conditions need not be identical. Identical values can stand only once.

Tests used:
[1] = biological target: T1, MHC I molecules on the surfaces of T2 cells (HLA-A*11:01) (Homo sapiens, UniProt P04439, A114D/D185E/E176A/F33Y/L180Q/S129P/T187R); test: Verification of affinity of polypeptide with T2 cells (flow cytometry, fluorescence index); type: cell-based
T1 construct: endogenous in cells; host or cells: T2 cells
Source text: T2 cells are a necessary antigen polypeptide transporter-deficient cell line in the endogenous antigen presentation pathway, and can be used to study the strength of the mutual recognition with MHC molecules in the antigen presentation process.
In order to verify the affinity of exogenous polypeptides with T2 cells, a polypeptide that had been confirmed to have strong affinity with T2 cells was used as positive control, and T2 cells without adding polypeptides were used as background control. […] Based on this, the affinity of the polypeptide with T2 cells is determined. The higher the FI value, the stronger the affinity of the polypeptide with T2 cells, which is conducive to the subsequent recognition of specific CD8^+ T cells.
The synthesized polypeptides were added to 2*10^5 T2 cells, and human β2 micro-globulin (with a final concentration of 3 μg/ml) was added and cultivated in 24-well plate. The plate was cultured in an incubator (37° C., 5% CO2) overnight. […] (SEQ ID NO: 9), which is a viral peptide and is also a known polypeptide with strong affinity with T2 cells, was used as a positive control, duplicate wells for each experiment, and the average value was calculated.
[…] for 5 minutes to collect the cells. […] The mean fluorescence intensity was then detected and analyzed by a flow cytometer (BD FACSJazz™) and its software, see FIG. 2.

CD8+ T cells = test: ELISPOT verification of activation of CD8+ T cell immune response (IFN-gamma secretion); type: cell-based, human
Method: (§1) The peripheral blood mononuclear cells (PBMCs) were collected from the volunteers who were positive for the corresponding subtype of the polypeptide. For 2×10^7 PBMCs, mononuclear cells were separated by using the adherent method (adhered for 3 h), and CD8^+ T cells were isolated by using CD8 magnetic beads. The adherent mononuclear cells were induced to immature DC cells by using GM-CSF (1000 U/ml) and IL-4 (1000 U/ml). Then, the adherent cells were induced into polypeptide-specific mature DC cells by IFN-gamma (100 U/ml), LPS (10 ng/ml), and the respective polypeptides. The obtained polypeptide-specific mature DC cells were co-cultured with volunteers' CD8^+ T cells, and IL-21 was added. After 3 days, IL-2 and IL-7 were supplemented. Thereafter, IL-2 and IL-7 were supplemented on day 5 and day 7, and on day 10, the co-cultured cells were counted, and the subsequent ELISPOTs and LDH were detected.
The ELISPOT method is an enzyme-linked immunospot assay, which can detect the cytokines secreted by a single cell. In the assay, the culture plate was coated with specific monoclonal antibodies, and then the cells to be detected and antigenic stimulant were added for culture. Under the stimulation of the stimulant, the corresponding cytokines were secreted by the T cells, and the secreted cytokines were captured by the antibodies coated on the culture plate. After washing away the cells, the captured cytokines were bonded to […] secondary antibodies to form spots. […]
With reference to the specification in the ELISPOT kit, the cells cultured in Example 4, T2 cells loaded with testing polypeptide ([…], SEQ ID NO: 2), and T2 cells loaded with irrelevant polypeptide (referring to a polypeptide not stimulating T cells to secrete IFN-gamma interferon and having a specific sequence of […], the irrelevant polypeptide used in the following examples also refers to this sequence) were added respectively to the ELISPOT plate for cultivation, and ELISPOTs were detected after 20 hours (see the specification of the ELISPOT kit). […]

T2 cells = test: LDH release assay of polypeptide-specific killing activity of CD8+ T cells; type: cell-based; details: triplicate wells
Method: as §1
LDH is an enzyme present in the cytoplasm. LDH will be released into the culture medium when the cell membrane is damaged. Since the released LDH is stable, the measured amount of LDH in the medium can be used as an indicator to measure the number of dead and damaged cells.
The cells cultured in Example 4 were co-cultured with the T2 cells loaded with the testing polypeptide or the irrelevant polypeptide or no polypeptide. In the assay, maximum release wells, volume correction wells, medium control wells, spontaneous release wells, different effect-target ratios (the ratio of the number of T cells to the number of T2 cells) were set, triplicated wells for each group. After 4 hours, 50 μl of the co-cultured cell supernatant was taken and added to 50 μl of LDH substrate mixture, allowing the cell supernatant to catalyze the LDH substrate reaction, finally reading at the wavelength of 490 nm and the reference wavelength of 680 nm. Based on the control wells, the killing activity of […] killing T2 cells was calculated. The greater the value shown in Table 4, the stronger the killing effect.

[2] = system: HCC827 subcutaneous tumor model; test: Polypeptide vaccine in mouse subcutaneous transplanted tumor model; type: in vivo, NOD/SCID mice; details: polypeptide + Freund's adjuvant, 4 immunizations, compared with wild-type polypeptide group and adjuvant group, FIG. 4
Source text: (§2) This model was used to verify the tumor control effect of the polypeptide pharmaceutical combination, the antigen-presenting cell, and the vaccine proposed by the present disclosure. • 1. The encoding gene of each polypeptide was introduced by lentivirus transfection, and the recombinant lentivirus expressing the above-mentioned mutant polypeptide or a variant thereof was constructed and packaged. • 2. Construction of human-derived lung cancer cell line expressing the polypeptides
(§3) The human lung cancer cell line HCC827 was purchased from ATCC (No: CRL-2868), and its HLA subtype was HLA-A*1101 positive. Cells were cultured in DMEM medium containing 10% fetal bovine serum, 100 U/mL penicillin and streptomycin, in an incubator at 37° C., 5% CO2. […]
(§4) The established human lung cancer cell line was cultured in DMEM medium containing 10% fetal bovine serum, 100 U/mL penicillin and streptomycin, in an incubator at 37° C., 5% CO2. […] The subcutaneous tumor model NOD/SCID mice with immune reconstitution for 4 weeks were treated with DC vaccine, and the tumor volumes were recorded every 3 to 4 days. […]
The first immunization dosage of the polypeptide of each group was […] per mouse. […] After the injection, the vital signs of the mice were observed, and the vertical and horizontal sizes of the tumor were measured with a vernier caliper every 3 to 4 days. […]

[3] = system: HCC827 subcutaneous tumor model; test: DC polypeptide vaccine in mouse subcutaneous transplanted tumor model; type: in vivo, NOD/SCID mice; details: polypeptide-loaded DC cells, intradermal, 2 injections; compared with wild-type and blank polypeptide-loaded DC groups; FIG. 5
Source text: as §2
as §3, with “CO2. The packaged lentivirus was transfected into the HCC827 cell line, and antibiotic puromycin was used to continuously screen the surviving HCC827 cell line, and finally the HCC827 cell line expressing the polypeptides was established. • 3. NOD SCID mouse human immune reconstitution” for “CO2.”
as §4

[4] = system: HCC827 subcutaneous tumor model; test: Polypeptide-specific DC-CTL vaccine in mouse subcutaneous transplanted tumor model; type: in vivo, NOD/SCID mice; details: polypeptide-activated CTLs reinfused through the tail vein; compared with blank polypeptide and wild-type polypeptide groups; FIG. 6
Source text: as §2, §3
The established human lung cancer cell line was cultured in DMEM medium containing 10% fetal bovine serum, 100 U/mL penicillin and streptomycin, in an incubator at 37° C., 5% CO2. […] The subcutaneous tumor model NOD/SCID mice with immune reconstitution for 4 weeks were treated with DC vaccine, and the tumor volumes were recorded every 3 to 4 days.
The PBLs collected in Example 9 were sorted by magnetic beads to obtain CD8^+ T cells. […] The culture medium was incubated with 500 IU/ml IL-2 and 50 ng/ml IL-7, in an incubator at 37° C. with 5% CO2, and the cells were counted after 1 week of culture. […]

RHGGWTTK (Mutant polypeptide)
Conclusion (T2 cell affinity) ([1]; compared with the positive control): High affinity
FI ([1]; fluorescence index, T2 cells, overnight, FITC anti-HLA-A*11:01 antibody, flow cytometry): 2.12
Number of spots produced by using irrelevant polypeptide as stimulant (CD8+ T cells; IFN-gamma ELISPOT, T2 cells loaded with irrelevant polypeptide LSYRNKPSI, 20 hours): 11
Number of spots produced by using testing polypeptide as stimulant (CD8+ T cells; IFN-gamma ELISPOT, T2 cells loaded with testing polypeptide, 20 hours): 104
Multiple (testing/irrelevant) (CD8+ T cells; ratio of spot numbers, >=2 regarded as having immunogenicity): 9
Killing activity, T + T2 (loaded with no polypeptide) (T2 cells; E:T = 1:1, 4 hours): 0.322 and 0.279 and 0.298
Killing activity, T + T2 + irrelevant polypeptide (T2 cells; E:T = 1:1, 4 hours): 0.278 and 0.293 and 0.308
Killing activity, T + T2 + testing polypeptide (T2 cells; E:T = 1:1, 4 hours): 0.324 and 0.351
Killing activity, T + T2 (loaded with no polypeptide) (T2 cells; E:T = 10:1, 4 hours): 0.413 and 0.352 and 0.364
Killing activity, T + T2 + irrelevant polypeptide (T2 cells; E:T = 10:1, 4 hours): 0.436 and 0.371 and 0.407
Killing activity, T + T2 + testing polypeptide (T2 cells; E:T = 10:1, 4 hours): 0.406 and 0.397 and 0.414
Mouse tumor growth (tumor volume), polypeptide vaccine [2]: can significantly slow down the mouse tumor growth
Mouse tumor growth (tumor volume), polypeptide-loaded DC vaccine [3]: can significantly slow down the mouse tumor growth
Mouse tumor growth (tumor volume), DC-CTL vaccine [4]: can significantly slow down the mouse tumor growth
